The values below come from the kinase profiling compilation of Christmann-Franck et al. (2016).

Chain of MAP3K3 (human) (Q99759 whole entry, looked up): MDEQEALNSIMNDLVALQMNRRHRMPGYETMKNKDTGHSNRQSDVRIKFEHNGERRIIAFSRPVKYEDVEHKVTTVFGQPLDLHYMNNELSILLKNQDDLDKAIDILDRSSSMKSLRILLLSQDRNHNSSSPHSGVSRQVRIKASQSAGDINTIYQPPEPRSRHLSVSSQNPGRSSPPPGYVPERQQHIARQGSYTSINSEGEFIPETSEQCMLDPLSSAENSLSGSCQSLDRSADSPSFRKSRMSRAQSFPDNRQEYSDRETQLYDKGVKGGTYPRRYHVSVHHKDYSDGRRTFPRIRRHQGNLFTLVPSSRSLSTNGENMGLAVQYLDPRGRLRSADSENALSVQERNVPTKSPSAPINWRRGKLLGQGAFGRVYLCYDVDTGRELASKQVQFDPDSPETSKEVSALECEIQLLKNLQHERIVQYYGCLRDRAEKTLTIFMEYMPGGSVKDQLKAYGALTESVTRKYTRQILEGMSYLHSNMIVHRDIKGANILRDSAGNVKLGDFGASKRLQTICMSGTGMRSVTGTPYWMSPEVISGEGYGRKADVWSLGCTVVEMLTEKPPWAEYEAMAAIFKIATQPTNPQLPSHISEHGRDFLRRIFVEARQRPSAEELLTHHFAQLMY
Chain of SRC (human) (P12931 whole entry, looked up): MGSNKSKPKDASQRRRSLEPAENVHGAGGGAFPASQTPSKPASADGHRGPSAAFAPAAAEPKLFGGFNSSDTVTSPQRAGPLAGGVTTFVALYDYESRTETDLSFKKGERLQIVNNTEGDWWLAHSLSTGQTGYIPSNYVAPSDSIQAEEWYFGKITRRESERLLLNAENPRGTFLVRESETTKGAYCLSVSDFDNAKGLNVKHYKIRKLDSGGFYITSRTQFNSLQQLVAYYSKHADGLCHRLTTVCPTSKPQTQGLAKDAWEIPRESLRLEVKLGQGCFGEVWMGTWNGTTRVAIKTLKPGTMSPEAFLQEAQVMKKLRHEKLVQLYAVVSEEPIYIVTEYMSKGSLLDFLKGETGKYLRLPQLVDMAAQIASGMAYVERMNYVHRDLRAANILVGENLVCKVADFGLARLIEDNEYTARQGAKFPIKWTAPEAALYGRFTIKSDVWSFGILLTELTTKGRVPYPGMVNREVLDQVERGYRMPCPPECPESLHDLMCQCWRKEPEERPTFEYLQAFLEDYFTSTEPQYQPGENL

For one test, the target named is ALK (human) (UniProt Q9UM73). Kind of test: radiometric filter-binding kinase assay, Kinase HotSpot. The settings on record: compound 0.5 µM; ATP 10 µM.
A word on the residual activity: it is the signal under treatment as a percentage of the control signal. `Cc1nc2cc3nc(-c4cccs4)cnc3cc2n1C`: the residual activity was 99.8%.
In the case of `O=C1NC(=O)C(c2cn(CCCO)c3ncccc23)=C1c1cnccn1`, the residual activity amounted to 105%.
The same measure, in the same setting: as for `COc1cc2ncnc(N3CCN(C(=O)Nc4ccc(Oc5ccccc5)cc4)CC3)c2cc1OC`, the figure is 101%.

A further test has as its target MAP3K3 (human) (UniProt Q99759). The test is described as above. The settings on record: compound 0.5 µM; ATP 10 µM.
As for `Cc1nc2cc3nc(-c4cccs4)cnc3cc2n1C`, the residual activity came out at 117%.
With `O=C1NC(=O)C(c2cn(CCCO)c3ncccc23)=C1c1cnccn1`, the residual activity amounted to 88.3%.
Same read-out and setting: then `COc1cc2ncnc(N3CCN(C(=O)Nc4ccc(Oc5ccccc5)cc4)CC3)c2cc1OC`, with 83.7%.

A further test has as its target EPHA7 (human) (UniProt Q15375). The description is as above. The settings on record: compound 0.5 µM; ATP 10 µM.
Take `Cc1nc2cc3nc(-c4cccs4)cnc3cc2n1C`: the residual activity worked out at 92.5%.
Still for that read-out and setting: as for `O=C1NC(=O)C(c2cn(CCCO)c3ncccc23)=C1c1cnccn1`, the figure is 105%; as for `COc1cc2ncnc(N3CCN(C(=O)Nc4ccc(Oc5ccccc5)cc4)CC3)c2cc1OC`, 96.8%.

Another test concerns the target STK33 (human) (UniProt Q9BYT3). The test is described as above. The settings on record: compound 0.5 µM; ATP 10 µM.
Turning to `Cc1nc2cc3nc(-c4cccs4)cnc3cc2n1C`, the residual activity amounted to 91.5%.
With `O=C1NC(=O)C(c2cn(CCCO)c3ncccc23)=C1c1cnccn1`, the residual activity is 82.8%.
`COc1cc2ncnc(N3CCN(C(=O)Nc4ccc(Oc5ccccc5)cc4)CC3)c2cc1OC`: the residual activity turned out to be 94.7%.

Another test addresses CSNK1G3 (human) (UniProt Q9Y6M4). The test is described as above. The settings on record: compound 0.5 µM; ATP 10 µM.
Regarding `Cc1nc2cc3nc(-c4cccs4)cnc3cc2n1C`, the residual activity stood at 96.1%.
Regarding `O=C1NC(=O)C(c2cn(CCCO)c3ncccc23)=C1c1cnccn1`, the residual activity worked out at 107%.
As for `COc1cc2ncnc(N3CCN(C(=O)Nc4ccc(Oc5ccccc5)cc4)CC3)c2cc1OC`, the residual activity was 82.7%.

For the next test, the target named is PAK4 (human) (UniProt O96013). The description is as above. As to conditions: compound 0.5 µM; ATP 10 µM.
Chain of PAK4 (human) (O96013 whole entry, looked up): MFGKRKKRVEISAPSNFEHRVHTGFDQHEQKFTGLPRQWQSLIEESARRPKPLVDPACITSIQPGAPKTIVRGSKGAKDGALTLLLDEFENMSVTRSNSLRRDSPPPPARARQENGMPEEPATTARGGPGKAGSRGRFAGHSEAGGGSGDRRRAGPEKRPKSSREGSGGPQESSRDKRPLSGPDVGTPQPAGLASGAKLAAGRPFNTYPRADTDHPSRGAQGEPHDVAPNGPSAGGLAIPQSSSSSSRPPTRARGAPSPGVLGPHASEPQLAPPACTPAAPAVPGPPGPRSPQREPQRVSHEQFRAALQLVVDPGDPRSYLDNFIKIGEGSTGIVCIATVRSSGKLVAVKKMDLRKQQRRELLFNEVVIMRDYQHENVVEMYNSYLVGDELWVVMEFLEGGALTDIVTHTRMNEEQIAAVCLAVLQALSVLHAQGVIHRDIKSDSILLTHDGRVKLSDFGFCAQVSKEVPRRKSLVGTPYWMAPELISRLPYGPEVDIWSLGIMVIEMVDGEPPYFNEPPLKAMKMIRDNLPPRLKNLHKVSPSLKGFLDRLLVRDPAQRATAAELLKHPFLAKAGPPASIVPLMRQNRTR
Turning to `Cc1nc2cc3nc(-c4cccs4)cnc3cc2n1C`, the residual activity turned out to be 126%.
For the compound `O=C1NC(=O)C(c2cn(CCCO)c3ncccc23)=C1c1cnccn1`, the residual activity is 111%.
With `COc1cc2ncnc(N3CCN(C(=O)Nc4ccc(Oc5ccccc5)cc4)CC3)c2cc1OC`, the residual activity was determined as 101%.

Another test deals with PIM3 (human) (UniProt Q86V86). Described as above. As to conditions: compound 0.5 µM; ATP 10 µM.
For the compound `Cc1nc2cc3nc(-c4cccs4)cnc3cc2n1C`, the residual activity was determined as 91.2%.
Consider `O=C1NC(=O)C(c2cn(CCCO)c3ncccc23)=C1c1cnccn1`, for which the residual activity amounted to 16.7%.
On the same count and under the same terms, then `COc1cc2ncnc(N3CCN(C(=O)Nc4ccc(Oc5ccccc5)cc4)CC3)c2cc1OC`, with 94.4%.

A further test deals with DYRK3 (human) (UniProt O43781). The description is as above. The settings on record: compound 0.5 µM; ATP 10 µM.
Chain of DYRK3 (human) (O43781 whole entry, looked up): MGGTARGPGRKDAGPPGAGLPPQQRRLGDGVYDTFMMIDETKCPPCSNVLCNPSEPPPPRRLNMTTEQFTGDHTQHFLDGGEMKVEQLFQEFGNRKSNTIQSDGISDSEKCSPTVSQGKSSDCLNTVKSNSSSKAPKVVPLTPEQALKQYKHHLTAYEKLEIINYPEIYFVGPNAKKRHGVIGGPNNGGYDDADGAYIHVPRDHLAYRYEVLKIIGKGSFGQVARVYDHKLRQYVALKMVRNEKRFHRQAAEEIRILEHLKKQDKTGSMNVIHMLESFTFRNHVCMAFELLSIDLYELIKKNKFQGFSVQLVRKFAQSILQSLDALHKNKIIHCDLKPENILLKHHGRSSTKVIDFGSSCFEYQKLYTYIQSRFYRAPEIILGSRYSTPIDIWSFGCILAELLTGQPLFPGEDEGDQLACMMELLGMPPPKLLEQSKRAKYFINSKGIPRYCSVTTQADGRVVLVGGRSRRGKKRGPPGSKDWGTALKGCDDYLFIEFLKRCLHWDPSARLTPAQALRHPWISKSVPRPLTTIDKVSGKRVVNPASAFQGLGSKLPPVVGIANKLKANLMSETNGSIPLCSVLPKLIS
For `Cc1nc2cc3nc(-c4cccs4)cnc3cc2n1C`, the residual activity stood at 111%.
Same read-out and setting: as for `O=C1NC(=O)C(c2cn(CCCO)c3ncccc23)=C1c1cnccn1`, the figure is 79.6%; as for `COc1cc2ncnc(N3CCN(C(=O)Nc4ccc(Oc5ccccc5)cc4)CC3)c2cc1OC`, 86.3%.

In a further test the target is CDK1 CCNA2 (human) (UniProt P06493+P20248). The test is described as above. The settings on record: compound 0.5 µM; ATP 10 µM.
In the case of `Cc1nc2cc3nc(-c4cccs4)cnc3cc2n1C`, the residual activity stood at 102%.
In the case of `O=C1NC(=O)C(c2cn(CCCO)c3ncccc23)=C1c1cnccn1`, the residual activity amounted to 91.8%.
Same read-out and setting: then `COc1cc2ncnc(N3CCN(C(=O)Nc4ccc(Oc5ccccc5)cc4)CC3)c2cc1OC`, with 92.3%.

In the next test the target is RAF1 (human) (UniProt P04049). The test is described as above. As to conditions: compound 0.5 µM; ATP 10 µM.
Take `Cc1nc2cc3nc(-c4cccs4)cnc3cc2n1C`: the residual activity amounted to 104%.
On the same count and under the same terms, as for `O=C1NC(=O)C(c2cn(CCCO)c3ncccc23)=C1c1cnccn1`, the figure is 100%; as for `COc1cc2ncnc(N3CCN(C(=O)Nc4ccc(Oc5ccccc5)cc4)CC3)c2cc1OC`, 88%.

A further test has as its target MAPK12 (human) (UniProt P53778). The description is as above. As to conditions: compound 0.5 µM; ATP 10 µM.
As for `Cc1nc2cc3nc(-c4cccs4)cnc3cc2n1C`, the residual activity was 103%.
Regarding `O=C1NC(=O)C(c2cn(CCCO)c3ncccc23)=C1c1cnccn1`, the residual activity was found to be 86.8%.
Still for that read-out and setting: then `COc1cc2ncnc(N3CCN(C(=O)Nc4ccc(Oc5ccccc5)cc4)CC3)c2cc1OC`, with 94.7%.

Another test addresses PRKCG (human) (UniProt P05129). The description is as above. The settings on record: compound 0.5 µM; ATP 10 µM.
In the case of `Cc1nc2cc3nc(-c4cccs4)cnc3cc2n1C`, the residual activity was 94.9%.
On the same count and under the same terms, as for `O=C1NC(=O)C(c2cn(CCCO)c3ncccc23)=C1c1cnccn1`, the figure is 93.1%.
On the same count and under the same terms, then `COc1cc2ncnc(N3CCN(C(=O)Nc4ccc(Oc5ccccc5)cc4)CC3)c2cc1OC`, with 104%.

The next test deals with RPS6KA5 KD2 (human) (UniProt O75582). Described as above. As to conditions: compound 0.5 µM; ATP 10 µM.
Chain of RPS6KA5 KD2 (human) (O75582 whole entry, looked up): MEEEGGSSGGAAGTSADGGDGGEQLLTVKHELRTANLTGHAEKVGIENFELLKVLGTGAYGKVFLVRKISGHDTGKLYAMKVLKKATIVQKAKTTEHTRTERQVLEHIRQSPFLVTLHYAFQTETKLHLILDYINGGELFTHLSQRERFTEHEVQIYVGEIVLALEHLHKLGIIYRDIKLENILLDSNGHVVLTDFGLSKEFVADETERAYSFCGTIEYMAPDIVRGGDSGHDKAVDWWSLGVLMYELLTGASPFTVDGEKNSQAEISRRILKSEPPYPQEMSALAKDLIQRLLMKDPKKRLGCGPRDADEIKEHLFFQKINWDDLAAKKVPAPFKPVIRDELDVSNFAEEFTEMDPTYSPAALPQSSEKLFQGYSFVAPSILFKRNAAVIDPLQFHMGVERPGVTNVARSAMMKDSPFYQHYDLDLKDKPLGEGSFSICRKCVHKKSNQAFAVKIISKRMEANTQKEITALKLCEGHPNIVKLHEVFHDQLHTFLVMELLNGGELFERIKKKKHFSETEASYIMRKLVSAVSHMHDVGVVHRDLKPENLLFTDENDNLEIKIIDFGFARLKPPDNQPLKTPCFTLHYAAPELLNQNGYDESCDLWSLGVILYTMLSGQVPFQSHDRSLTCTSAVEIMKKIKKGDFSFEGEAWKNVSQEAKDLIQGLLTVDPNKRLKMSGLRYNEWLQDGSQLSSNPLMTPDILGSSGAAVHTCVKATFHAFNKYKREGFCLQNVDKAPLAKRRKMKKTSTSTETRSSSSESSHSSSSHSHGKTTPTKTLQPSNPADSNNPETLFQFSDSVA
As to `Cc1nc2cc3nc(-c4cccs4)cnc3cc2n1C`, the residual activity is 109%.
On the same count and under the same terms, as for `O=C1NC(=O)C(c2cn(CCCO)c3ncccc23)=C1c1cnccn1`, the figure is 73.9%; as for `COc1cc2ncnc(N3CCN(C(=O)Nc4ccc(Oc5ccccc5)cc4)CC3)c2cc1OC`, 96.4%.

The target in another test is JAK2 JH1 JH2 (human) (UniProt O60674). The description is as above. As to conditions: compound 0.5 µM; ATP 10 µM.
Take `Cc1nc2cc3nc(-c4cccs4)cnc3cc2n1C`: the residual activity came out at 106%.
Still for that read-out and setting: then `O=C1NC(=O)C(c2cn(CCCO)c3ncccc23)=C1c1cnccn1`, with 97.8%; and `COc1cc2ncnc(N3CCN(C(=O)Nc4ccc(Oc5ccccc5)cc4)CC3)c2cc1OC`, with 99.3%.

Another test has as its target SRC (human) (UniProt P12931). Described as above. As to conditions: compound 0.5 µM; ATP 10 µM.
Turning to `Cc1nc2cc3nc(-c4cccs4)cnc3cc2n1C`, the residual activity stood at 89.9%.
On the same count and under the same terms, as for `O=C1NC(=O)C(c2cn(CCCO)c3ncccc23)=C1c1cnccn1`, the figure is 78.9%; as for `COc1cc2ncnc(N3CCN(C(=O)Nc4ccc(Oc5ccccc5)cc4)CC3)c2cc1OC`, 102%.

The target of another test is CAMK1 (human) (UniProt Q14012). The test is described as above. As to conditions: compound 0.5 µM; ATP 10 µM.
On to `Cc1nc2cc3nc(-c4cccs4)cnc3cc2n1C`, for which the residual activity was 98.1%.
On the same count and under the same terms, then `O=C1NC(=O)C(c2cn(CCCO)c3ncccc23)=C1c1cnccn1`, with 101%; and `COc1cc2ncnc(N3CCN(C(=O)Nc4ccc(Oc5ccccc5)cc4)CC3)c2cc1OC`, with 96.9%.

The next test concerns the target FGR (human) (UniProt P09769). Described as above. As to conditions: compound 0.5 µM; ATP 10 µM.
For the compound `Cc1nc2cc3nc(-c4cccs4)cnc3cc2n1C`, the residual activity is 89.3%.
Same read-out and setting: as for `O=C1NC(=O)C(c2cn(CCCO)c3ncccc23)=C1c1cnccn1`, the figure is 108%; as for `COc1cc2ncnc(N3CCN(C(=O)Nc4ccc(Oc5ccccc5)cc4)CC3)c2cc1OC`, 98.8%.

In another test the target is EPHA4 (human) (UniProt P54764). The description is as above. The settings on record: compound 0.5 µM; ATP 10 µM.
Chain of EPHA4 (human) (P54764 whole entry, looked up): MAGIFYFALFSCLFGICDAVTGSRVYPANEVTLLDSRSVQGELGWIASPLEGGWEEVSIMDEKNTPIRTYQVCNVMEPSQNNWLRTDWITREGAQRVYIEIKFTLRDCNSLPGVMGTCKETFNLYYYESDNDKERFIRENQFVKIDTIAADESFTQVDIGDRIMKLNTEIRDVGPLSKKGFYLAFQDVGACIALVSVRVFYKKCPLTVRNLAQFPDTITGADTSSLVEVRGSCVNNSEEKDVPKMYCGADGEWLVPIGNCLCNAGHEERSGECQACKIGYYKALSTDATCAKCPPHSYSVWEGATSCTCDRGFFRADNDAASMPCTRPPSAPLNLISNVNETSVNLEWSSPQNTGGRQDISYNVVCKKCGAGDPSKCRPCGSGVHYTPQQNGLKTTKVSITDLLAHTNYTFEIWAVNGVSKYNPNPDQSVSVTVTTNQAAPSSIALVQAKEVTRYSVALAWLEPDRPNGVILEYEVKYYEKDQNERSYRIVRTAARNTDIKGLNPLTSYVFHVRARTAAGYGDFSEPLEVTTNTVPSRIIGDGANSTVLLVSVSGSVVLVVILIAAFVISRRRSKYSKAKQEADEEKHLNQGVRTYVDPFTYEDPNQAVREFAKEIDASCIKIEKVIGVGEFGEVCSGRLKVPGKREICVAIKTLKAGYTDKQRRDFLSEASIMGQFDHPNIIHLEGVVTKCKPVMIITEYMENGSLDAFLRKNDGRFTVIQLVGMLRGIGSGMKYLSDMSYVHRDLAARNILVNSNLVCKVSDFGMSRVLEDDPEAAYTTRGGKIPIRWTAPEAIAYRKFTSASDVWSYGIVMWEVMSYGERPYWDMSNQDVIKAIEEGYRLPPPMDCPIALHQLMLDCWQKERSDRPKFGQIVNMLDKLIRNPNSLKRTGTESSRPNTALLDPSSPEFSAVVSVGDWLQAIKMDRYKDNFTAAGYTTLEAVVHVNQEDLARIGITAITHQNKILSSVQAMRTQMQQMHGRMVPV
Take `Cc1nc2cc3nc(-c4cccs4)cnc3cc2n1C`: the residual activity turned out to be 93.1%.
For `O=C1NC(=O)C(c2cn(CCCO)c3ncccc23)=C1c1cnccn1`, the residual activity stood at 99.5%.
Still for that read-out and setting: as for `COc1cc2ncnc(N3CCN(C(=O)Nc4ccc(Oc5ccccc5)cc4)CC3)c2cc1OC`, the figure is 93.2%.

The target of the next test is MKNK2 (human) (UniProt Q9HBH9). Described as above. As to conditions: compound 0.5 µM; ATP 10 µM.
Chain of MKNK2 (human) (Q9HBH9 whole entry, looked up): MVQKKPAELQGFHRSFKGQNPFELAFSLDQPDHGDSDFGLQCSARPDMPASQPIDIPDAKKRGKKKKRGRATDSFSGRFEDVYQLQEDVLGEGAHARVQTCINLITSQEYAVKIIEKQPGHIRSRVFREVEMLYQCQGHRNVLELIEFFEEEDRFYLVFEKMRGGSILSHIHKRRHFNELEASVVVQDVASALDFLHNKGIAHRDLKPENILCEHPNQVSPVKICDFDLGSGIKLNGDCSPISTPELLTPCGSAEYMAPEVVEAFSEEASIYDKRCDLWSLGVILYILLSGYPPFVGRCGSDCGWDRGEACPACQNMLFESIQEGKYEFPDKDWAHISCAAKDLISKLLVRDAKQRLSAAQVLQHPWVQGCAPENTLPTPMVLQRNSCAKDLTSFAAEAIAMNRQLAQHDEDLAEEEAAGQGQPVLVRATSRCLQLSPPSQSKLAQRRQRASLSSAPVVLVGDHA
Regarding `Cc1nc2cc3nc(-c4cccs4)cnc3cc2n1C`, the residual activity was 108%.
Regarding `O=C1NC(=O)C(c2cn(CCCO)c3ncccc23)=C1c1cnccn1`, the residual activity stood at 69.1%.
The same measure, in the same setting: then `COc1cc2ncnc(N3CCN(C(=O)Nc4ccc(Oc5ccccc5)cc4)CC3)c2cc1OC`, with 94.2%.

In a further test the target is WNK3 (human) (UniProt Q9BYP7). The description is as above. As to conditions: compound 0.5 µM; ATP 10 µM.
In the case of `Cc1nc2cc3nc(-c4cccs4)cnc3cc2n1C`, the residual activity was 96.9%.
Still for that read-out and setting: as for `O=C1NC(=O)C(c2cn(CCCO)c3ncccc23)=C1c1cnccn1`, the figure is 91.3%; as for `COc1cc2ncnc(N3CCN(C(=O)Nc4ccc(Oc5ccccc5)cc4)CC3)c2cc1OC`, 101%.

Another test addresses CAMKK1 (human) (UniProt Q8N5S9). Described as above. The settings on record: compound 0.5 µM; ATP 10 µM.
As to `Cc1nc2cc3nc(-c4cccs4)cnc3cc2n1C`, the residual activity was 127%.
